This note sets out measurements from DBAASP.

Test systems include Escherichia coli BL21; Alternaria alternata; Cladosporium herbarum; Botrytis cinerea; Escherichia coli SPE 001.
Holding throughout (assay): ≥ marks a high value that may be exact or a test limit, other limits are often not marked, values filed in µg/mL are converted to µM
Assay [1] concerns Xanthomonas vesicatoria DSM 50861.
In assay [2] the test system is Staphylococcus aureus 90857.
Assay [3] relates to Pseudomonas syringae pv. syringae DSM 10604.
In assay [4] the test system is Pseudomonas syringae pv. tomato DC3000.
Assay [5] has as its system Pectobacterium carotovorum subsp. carotovorum DSM 30168.
In assay [6] the test system is Pseudomonas corrugata DSM 7228.
Assay [7] concerns Clavibacter michiganensis subsp. michiganensis DSM 46294.
The subject of assay [8] is Bacillus subtilis ISW 1214.
Assay [9] concerns Streptococcus mutans ATCC 25175.
In assay [10] the test system is Bacillus subtilis ATCC 62037.
For assay [11], the system named is Staphylococcus aureus ATCC 15752.
Assay [12] relates to Saccharomyces cerevisiae ATCC 44774.
The test system of assay [13] is Pseudomonas putida ATCC 17426.
Assay [14] has as its system Escherichia coli ATCC 27325.
The subject of assay [15] is Candida albicans ATCC 10231.
Assay [16] concerns Salmonella enterica subsp. enterica serovar Enteritidis ATCC 13076.
Assay [17] deals with Pseudomonas aeruginosa ATCC 27853.
The test system of assay [18] is Micrococcus luteus ATCC 10240.
The subject of assay [19] is Enterococcus faecalis ATCC 29212.
The subject of assay [20] is Bacillus subtilis KCTC 3038.
The test system of assay [21] is Salmonella typhimurium KCTC 2370.
For assay [22], the system named is Cryptococcus neoformans ATCC 34881.
The test system of assay [23] is Pseudomonas aeruginosa ATCC 13388.
Assay [24] concerns Escherichia coli ATCC 11219.
Assay [25] has as its system Klebsiella pneumoniae ATCC 10031.
The subject of assay [26] is Staphylococcus aureus ATCC 6538.
Assay [27] relates to Salmonella enterica subsp. enterica serovar Typhimurium ATCC 14028.
Assay [28] relates to Staphylococcus aureus SPM 101.
The test system of assay [29] is Staphylococcus aureus NBRC 100910.
Assay [30] has as its system Staphylococcus aureus USA 100.
Assay [31] has as its system Staphylococcus aureus USA 300.
The test system of assay [32] is Pseudomonas aeruginosa ATCC 9027.
Assay [33] relates to Candida albicans ATCC 90028.

In brackets after ≈: the same amount, converted by molar mass. Where only a bound is given, the exact number is not on record here.

For orientation: MIC means the least concentration at which growth counts as inhibited. Read a low MIC as a more susceptible organism. Turning to `CC[C@H](C)[C@H](NC(=O)[C@@H](NC(=O)[C@H](CCCCN)NC(=O)[C@H](CCCCN)NC(=O)[C@@H](NC(=O)[C@@H](NC(=O)[C@H](CCCCN)NC(=O)[C@@H](NC(=O)[C@H](CCCCN)NC(=O)[C@H](CCCCN)NC(=O)[C@H](CCCCN)NC(=O)[C@@H](N)CCCN=C(N)N)[C@@H](C)CC)[C@@H](C)CC)[C@@H](C)CC)[C@@H](C)CC)C(N)=O` [RKKKIKIIKKII], the MIC in assay [1] is 1.66 µM (≈ 2.5 µg/mL); in assay [2] it was not below 62.5 µM; in assay [3], 0.331 µM (≈ 0.5 µg/mL); in assay [4], 3.31 µM (≈ 5 µg/mL); in [5], 6.63 µM (≈ 9.99 µg/mL); in assay [6] it was 3.31 µM (≈ 5 µg/mL). The compound also registered an MIC in assay [7] of 1.66 µM (≈ 2.5 µg/mL).
Turning to `CC(=O)NCC(=O)N[C@@H](Cc1c[nH]c2ccccc12)C(=O)N[C@@H](CC(C)C)C(=O)N[C@@H](CCC(N)=O)C(=O)N[C@@H](CC(C)C)C(=O)N[C@@H](C)C(=O)N[C@@H](CCC(N)=O)C(=O)N[C@@H](Cc1cnc[nH]1)C(=O)N[C@@H](CC(C)C)C(=O)N[C@@H](CC(C)C)C(=O)N[C@@H](CCC(N)=O)C(=O)N[C@@H](CC(C)C)C(=O)NCC(=O)N[C@@H](CCC(N)=O)C(=O)N[C@@H](Cc1cnc[nH]1)C(=O)N[C@@H](CC(C)C)C(=O)N[C@@H](CC(C)C)C(=O)N[C@@H](CCC(N)=O)C(=O)N[C@@H](CC(C)C)C(=O)N[C@@H](C)C(=O)N[C@@H](CCC(N)=O)C(=O)N[C@@H](CCC(N)=O)C(=O)N[C@@H](CC(C)C)C(=O)N[C@@H](CCCN=C(N)N)C(=O)N[C@@H](CCCN=C(N)N)C(=O)N[C@@H](CCCN=C(N)N)C(N)=O` [GWLQLAQHLLQLGQHLLQLAQQLRRR], the values for the MIC (in assay [8]; with Escherichia coli BL21) were 2.5 µM (≈ 7.9 µg/mL) and not below 160 µM, respectively.
`CC[C@H](C)[C@H](NC(=O)[C@@H]1CCCN1C(=O)[C@H](Cc1c[nH]c2ccccc12)NC(=O)[C@H](CCC(N)=O)NC(=O)[C@H](CCCN=C(N)N)NC(=O)[C@@H](NC(=O)[C@@H](NC(=O)[C@@H](N)CCCN=C(N)N)C(C)C)C(C)C)C(=O)NCC(=O)N[C@@H](CCCN=C(N)N)C(=O)N[C@H](C(=O)N[C@H](C(=O)N[C@@H](CCCN=C(N)N)C(=O)N[C@@H](CCCN=C(N)N)C(=O)N[C@H](C(=O)N[C@H](C(=O)N[C@@H](CCCN=C(N)N)C(=O)N[C@@H](CCCN=C(N)N)C(=O)N[C@H](C(=O)N[C@H](C(=O)N[C@@H](CCCN=C(N)N)C(=O)N[C@@H](CC(C)C)C(=O)O)C(C)C)C(C)C)C(C)C)C(C)C)C(C)C)C(C)C` [RVVRQWPIGRVVRRVVRRVVRL]: the MIC in assay [9] stood at 0.726 µM (≈ 2 µg/mL); in assay [10], 0.726 µM (≈ 2 µg/mL); in assay [11] it was 0.726 µM (≈ 2 µg/mL); in assay [12] it was 0.726 µM (≈ 2 µg/mL); in assay [13], 1.45 µM (≈ 4 µg/mL); in assay [14], 0.726 µM (≈ 2 µg/mL). Moreover, the results for the MIC in assay [15] and in assay [16] were 0.726 µM (≈ 2 µg/mL) and 1.45 µM (≈ 4 µg/mL), respectively.
For `CC(C)[C@H](NC(=O)CNC(=O)[C@H](CCC(N)=O)NC(=O)[C@@H](NC(=O)[C@@H](NC(=O)[C@@H]1CCCN1C(=O)[C@H](CCCN=C(N)N)NC(=O)[C@@H](NC(=O)[C@@H](NC(=O)[C@@H](N)CCCN=C(N)N)C(C)C)C(C)C)C(C)C)C(C)C)C(=O)N[C@@H](CCCCN)C(=O)N[C@@H](CCC(N)=O)C(=O)N[C@@H](CCCCN)C(=O)N[C@H](C(=O)N[C@@H](CCCN=C(N)N)C(=O)O)C(C)C` [RVVRPVVQGVKQKVR], the MIC in [11] was not below 36.6 µM; in [12], 18.3 µM (≈ 32 µg/mL); in assay [17] it was 9.15 µM (≈ 16 µg/mL); in assay [18] it was not below 36.6 µM; in assay [19], more than 36.6 µM; in assay [20], not below 36.6 µM. Further, the MIC was not below 36.6 µM in assay [14], not below 36.6 µM in assay [21], 36.6 µM (≈ 64 µg/mL) in assay [15] and not below 36.6 µM in [22].
For `CC[C@H](C)[C@H](NC(=O)CN)C(=O)N[C@@H](CCCN=C(N)N)C(=O)N[C@@H](CCCN=C(N)N)C(=O)N[C@H](C(=O)N[C@@H](CC(C)C)C(=O)N[C@@H](CCCN=C(N)N)C(=O)N[C@@H](Cc1ccc(O)cc1)C(=O)NCC(=O)N[C@@H](CCCN=C(N)N)C(=O)N[C@@H](CCCN=C(N)N)C(=O)N[C@@H](CO)C(N)=O)[C@@H](C)CC` [GIRRILRYGRRS], the MIC amounted to 20 µM (≈ 30 µg/mL) in [23]; 3 µM (≈ 4.51 µg/mL) in assay [24]; 5 µM (≈ 7.51 µg/mL) in assay [25]; 10 µM (≈ 15 µg/mL) in [26]; 10 µM (≈ 15 µg/mL) in assay [27].
On to `CC(C)C[C@H](NC(=O)[C@H](C)NC(=O)CNC(=O)[C@H](CCCN=C(N)N)NC(=O)[C@H](Cc1ccccc1)NC(=O)[C@H](C)NC(=O)[C@H](CCCN=C(N)N)NC(=O)[C@H](Cc1ccccc1)NC(=O)[C@H](C)NC(=O)[C@H](C)NC(=O)[C@H](CC(C)C)NC(=O)[C@H](CCCN=C(N)N)NC(=O)[C@H](CCCN=C(N)N)NC(=O)[C@@H](N)CCCCN)C(=O)N[C@@H](CCCCN)C(=O)N[C@@H](CO)C(=O)N[C@H](C(=O)N[C@@H](CC(C)C)C(=O)N[C@@H](CCCCN)C(=O)N[C@@H](CCCCN)C(N)=O)C(C)C` [KRRLAAFRAFRGALKSVLKK], for which the MIC in [1] is 2.16 µM (≈ 5 µg/mL); in [3], 2.16 µM (≈ 5 µg/mL); in assay [4], 2.16 µM (≈ 5 µg/mL); in assay [5], 17.3 µM (≈ 40 µg/mL); against Alternaria alternata, not below 43.2 µM; against Cladosporium herbarum it was 8.63 µM (≈ 20 µg/mL). Further, the MIC in assay [6] was 1.08 µM (≈ 2.5 µg/mL); in [7], 2.16 µM (≈ 5 µg/mL); against Botrytis cinerea it was not below 43.2 µM.
As for `CC(C)C[C@H](NC(=O)[C@H](CCCCN)NC(=O)[C@H](CC(C)C)NC(=O)[C@H](CC(C)C)NC(=O)[C@H](CC(C)C)NC(=O)[C@H](CCCCN)NC(=O)[C@H](CC(C)C)NC(=O)[C@@H](N)CCCCN)C(=O)N[C@@H](CCCCN)C(N)=O` [KLKLLLKLK], the MIC in assay [28] is 1.82 µM (≈ 2 µg/mL); against Escherichia coli SPE 001 it was 7.3 µM (≈ 7.99 µg/mL); in assay [29] it was not below 117 µM; in assay [30], not below 50 µM; in [31], not below 50 µM; in [32], 12.5 µM (≈ 13.7 µg/mL). This compound gave an MIC in assay [33] not below 100 µM.
